Reference: ChEMBL document CHEMBL1127569, “Comparison of the conformation of active and nonactive backbone cyclic analogs of substance P as a tool to elucidate features of the bioactive conformation: NMR and molecular dynamics in DMSO and water” (J Med Chem, 1994)
Starred links: 1 amine or outer side, 2 acyl side, 3 side chain; linkers in the order of their positions; H or OH if unused. Positions of bridges follow the written chain, without caps; N, C: chain ends. Non-standard residues stand in square brackets, D forms with d. Residues, ends and D or L forms follow the SMILES beside them. NGly(3-aminopropyl) = O=C(CN(CCCN[*:3])[*:1])[*:2]; N(2-Aminoethyl)Gly = O=C(CN(CCN[*:3])[*:1])[*:2]; Adipoyl = O=C(CCCCC(=O)[*:2])[*:1]; Glutaryl = O=C(CCCC(=O)[*:2])[*:1]; Suc = O=C(CCC(=O)[*:2])[*:1]

Columns and labels:
[1] = target: T1, Neuromedin-K receptor (Homo sapiens, UniProt P29371); assay: Tested for the biological activity and selectivity against NK-3 receptor
T1 sequence (P29371 whole entry): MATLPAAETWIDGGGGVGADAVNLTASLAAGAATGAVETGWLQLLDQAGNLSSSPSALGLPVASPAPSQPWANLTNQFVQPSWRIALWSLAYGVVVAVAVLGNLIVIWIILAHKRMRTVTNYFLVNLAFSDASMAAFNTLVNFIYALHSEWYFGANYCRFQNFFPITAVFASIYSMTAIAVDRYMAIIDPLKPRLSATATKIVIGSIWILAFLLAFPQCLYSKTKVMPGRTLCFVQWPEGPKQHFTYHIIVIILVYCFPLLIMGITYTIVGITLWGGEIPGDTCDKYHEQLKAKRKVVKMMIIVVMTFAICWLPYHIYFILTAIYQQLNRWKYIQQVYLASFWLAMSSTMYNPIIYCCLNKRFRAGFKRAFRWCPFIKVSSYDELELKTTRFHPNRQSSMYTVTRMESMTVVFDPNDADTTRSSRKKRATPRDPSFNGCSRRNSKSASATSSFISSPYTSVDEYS

[2] = target: T2, Substance-K receptor (Homo sapiens, UniProt P21452); assay: Tested for the biological activity and selectivity against NK-2 receptor
T2 sequence (P21452 whole entry): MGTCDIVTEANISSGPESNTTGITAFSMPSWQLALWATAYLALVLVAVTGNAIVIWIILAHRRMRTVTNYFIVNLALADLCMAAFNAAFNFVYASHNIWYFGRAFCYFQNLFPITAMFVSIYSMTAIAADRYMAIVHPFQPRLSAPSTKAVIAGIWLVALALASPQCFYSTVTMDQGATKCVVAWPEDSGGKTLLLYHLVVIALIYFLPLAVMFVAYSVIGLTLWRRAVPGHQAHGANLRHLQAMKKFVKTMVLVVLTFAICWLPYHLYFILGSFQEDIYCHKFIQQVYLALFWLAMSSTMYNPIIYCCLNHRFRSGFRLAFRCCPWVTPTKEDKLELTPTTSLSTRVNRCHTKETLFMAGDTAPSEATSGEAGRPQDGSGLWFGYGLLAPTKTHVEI

[3] = target: Substance-P receptor (Homo sapiens, UniProt P25103); assay: Tested for the biological activity and selectivity against NK-1 receptor
Sequence of Substance-P receptor (P25103 whole entry): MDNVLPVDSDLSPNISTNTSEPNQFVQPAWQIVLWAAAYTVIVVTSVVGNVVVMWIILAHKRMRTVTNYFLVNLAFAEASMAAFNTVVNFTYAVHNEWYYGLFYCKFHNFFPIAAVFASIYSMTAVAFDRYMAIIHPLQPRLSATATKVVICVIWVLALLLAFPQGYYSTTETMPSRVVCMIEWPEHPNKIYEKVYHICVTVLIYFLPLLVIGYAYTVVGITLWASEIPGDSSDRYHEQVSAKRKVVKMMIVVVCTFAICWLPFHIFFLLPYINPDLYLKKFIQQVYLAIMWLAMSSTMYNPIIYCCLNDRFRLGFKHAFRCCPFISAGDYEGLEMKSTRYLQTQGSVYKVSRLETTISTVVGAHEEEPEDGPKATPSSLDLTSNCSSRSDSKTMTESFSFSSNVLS

| EC50 [1] [µM] | EC50 [2] [µM] | EC50 [3] [nM] | Compound |
| --- | --- | --- | --- |
| > 10 | > 50 | > 10000 | CSCC[C@H](NC(=O)[C@H](CC(C)C)NC(=O)CN1CCNC(=O)CCC(=O)NCC(=O)N[C@@H](CCCN=C(N)N)C(=O)N[C@@H](Cc2ccccc2)C(=O)N[C@@H](Cc2ccccc2)C1=O)C(N)=O (GRFF[N(2-Aminoethyl)Gly]LM-NH2; linker N-5 via Suc) |
| > 10 | > 50 | 5 | CSCC[C@H](NC(=O)[C@H](CC(C)C)NC(=O)CN1CCCNC(=O)CCCCC(=O)N[C@@H](CCCN=C(N)N)C(=O)N[C@@H](Cc2ccccc2)C(=O)N[C@@H](Cc2ccccc2)C1=O)C(N)=O (RFF[NGly(3-aminopropyl)]LM-NH2; linker N-4 via Adipoyl) |
| > 10 | > 50 | 11 | CSCC[C@H](NC(=O)[C@H](CC(C)C)NC(=O)CN1CCCNC(=O)CCCC(=O)N[C@@H](CCCN=C(N)N)C(=O)N[C@@H](Cc2ccccc2)C(=O)N[C@@H](Cc2ccccc2)C1=O)C(N)=O (RFF[NGly(3-aminopropyl)]LM-NH2; linker N-4 via Glutaryl) |
| > 10 | > 50 | 180 | CSCC[C@H](NC(=O)[C@H](CC(C)C)NC(=O)CN1CCCNC(=O)CCC(=O)N[C@@H](CCCN=C(N)N)C(=O)N[C@@H](Cc2ccccc2)C(=O)N[C@@H](Cc2ccccc2)C1=O)C(N)=O (RFF[NGly(3-aminopropyl)]LM-NH2; linker N-4 via Suc) |
